Measured values: ChEMBL document CHEMBL1201862, “PubChem BioAssay data set” (2004)
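Cultured in 96-well plates, cells were exposed to test compound for 48 hours across five concentrations. GI50 marks 50% less growth.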 Active and inactive are the calls of the source. Rule as the data show it: active = GI50 up to about 1.1 µM and inactive = higher.

Assays:
Test in all cases: NCI-60 cell line screen, 48 h
M14 = system: M14
SNB-75 = system: SNB-75
CAKI-1 = system: CAKI-1
RPMI-8226 = system: RPMI-8226
EKVX = system: EKVX
SK-OV-3 = system: SK-OV-3
786-0 = system: 786-0
HCC 2998 = system: HCC 2998
RXF 393 = system: RXF 393
DLD-1 = system: DLD-1
PC-3 = system: PC-3
DU-145 = system: DU-145
Hs-578T = system: Hs-578T
NCI/ADR-RES = system: NCI/ADR-RES
MDA-MB-435 = system: MDA-MB-435
MCF7 = system: MCF7
MDA-MB-231 = system: MDA-MB-231
T47D = system: T47D
MDA-N = system: MDA-N
BT-549 = system: BT-549

| SMILES | GI50 (M14) | GI50 (SNB-75) | GI50 (CAKI-1) | GI50 (RPMI-8226) | GI50 (EKVX) | GI50 (SK-OV-3) | GI50 (786-0) | GI50 (HCC 2998) | GI50 (RXF 393) | GI50 (DLD-1) | GI50 (PC-3) | GI50 (DU-145) | GI50 (Hs-578T) | GI50 (NCI/ADR-RES) | GI50 (MDA-MB-435) | GI50 (MCF7) | GI50 (MDA-MB-231) | GI50 (T47D) | GI50 (MDA-N) | GI50 (BT-549) |
| --- | --- | --- | --- | --- | --- | --- | --- | --- | --- | --- | --- | --- | --- | --- | --- | --- | --- | --- | --- | --- |
| FC(F)(F)C1(Cl)C(Cl)(c2ccccc2)C1(Cl)c1ccccc1 (configuration not stated) | 16.4 µM (inactive) | 16.3 µM (inactive) | 13 µM (inactive) | 27.7 µM (inactive) | 16.3 µM (inactive) | 23.1 µM (inactive) | 15.8 µM (inactive) | 16.9 µM (inactive) | 13.9 µM (inactive) | 15.4 µM (inactive) |  |  |  |  |  |  |  |  |  |  |
| Brc1nc2c3ccccc3ncn2c1Br | 38.5 µM (inactive) | 20.1 µM (inactive) | 28.3 µM (inactive) | 23.4 µM (inactive) | 21.1 µM (inactive) | 38.5 µM (inactive) | 37.2 µM (inactive) | 46.9 µM (inactive) | 35.6 µM (inactive) | 43.6 µM (inactive) |  |  |  |  |  |  |  |  |  |  |
| COc1cc(OC)c(OC)cc1/C=C\c1ccnc2ccccc12 | 0.574 µM (active) | 0.335 µM (active) | 1.05 µM (active) | 0.577 µM (active) | 2.17 µM (inactive) | 0.465 µM (active) | 0.687 µM (active) | 1.02 µM (active) | 0.466 µM (active) | 0.944 µM (active) | 0.532 µM (active) | 1.01 µM (active) | 0.252 µM (active) | 0.374 µM (active) | 0.156 µM (active) | 0.372 µM (active) | 0.796 µM (active) | 0.771 µM (active) | 0.185 µM (active) | 0.412 µM (active) |
| CC1=C(C(=O)Nc2ccc(Cl)c(Cl)c2)C(c2ccc([N+](=O)[O-])cc2)C(C(=O)Nc2ccc(Cl)c(Cl)c2)=C(C)N1 | 1.85 µM (inactive) | 3.84 µM (inactive) | 2.54 µM (inactive) | 1.45 µM (inactive) | 3.13 µM (inactive) | 4.31 µM (inactive) | 2.81 µM (inactive) | 2 µM (inactive) | 1.78 µM (inactive) | 3.41 µM (inactive) |  |  |  |  |  |  |  |  |  |  |
| COC(=O)NNc1c([N+](=O)[O-])cnn(-c2ccccc2)c1=O | 1.8 µM (inactive) | 7.48 µM (inactive) | 3.98 µM (inactive) | 2.44 µM (inactive) | 3.82 µM (inactive) | 9.71 µM (inactive) | 3.32 µM (inactive) | 5.36 µM (inactive) | 3.73 µM (inactive) | 2.06 µM (inactive) | 1.79 µM (inactive) | 5.62 µM (inactive) | 4.53 µM (inactive) |  | 1.66 µM (inactive) | 3.99 µM (inactive) |  | 2.21 µM (inactive) | 2.85 µM (inactive) | 1.82 µM (inactive) |
| COc1ccccc1CC(C)N (configuration not stated) | > 100 µM (inactive) | > 100 µM (inactive) | > 100 µM (inactive) | > 100 µM (inactive) | > 100 µM (inactive) | > 100 µM (inactive) | > 100 µM (inactive) | > 100 µM (inactive) | > 100 µM (inactive) | > 100 µM (inactive) |  |  |  |  |  |  |  |  |  |  |
| Cc1cccc(C)c1NC(=O)CCc1nnc2s/c(=C\c3ccc(N(C)C)cc3)c(=O)n12 | > 100 µM (inactive) | > 100 µM (inactive) | > 100 µM (inactive) | 66.2 µM (inactive) |  | > 100 µM (inactive) | > 100 µM (inactive) | > 100 µM (inactive) | 69.2 µM (inactive) | > 100 µM (inactive) |  |  |  |  |  |  |  |  |  |  |
| CC1NCCc2c1[nH]c1cc(O)ccc21 (configuration not stated) | > 100 µM (inactive) | > 100 µM (inactive) | > 100 µM (inactive) | > 100 µM (inactive) | > 100 µM (inactive) | > 100 µM (inactive) | > 100 µM (inactive) | > 100 µM (inactive) | > 100 µM (inactive) | > 100 µM (inactive) |  |  |  |  |  |  |  |  |  |  |
| Cn1nc2ccc3nccc(N(CCO)CCO)c3c2n1 | > 100 µM (inactive) | > 100 µM (inactive) | > 100 µM (inactive) | > 100 µM (inactive) | > 100 µM (inactive) | > 100 µM (inactive) | > 100 µM (inactive) | > 100 µM (inactive) | > 100 µM (inactive) | > 100 µM (inactive) |  |  |  |  |  |  |  |  |  |  |
| Cc1cc(O)c2c(c1)C(=O)c1c(c(O)cc(O)c1-c1c(O)cc(O)c3c1C(=O)c1cc(C)cc(O)c1C3=O)C2=O [SKYRIN] |  | 15.8 µM (inactive) | 16.8 µM (inactive) | 5.93 µM (inactive) | 11.9 µM (inactive) | 32.4 µM (inactive) |  | 11.4 µM (inactive) | 19.3 µM (inactive) | 8.75 µM (inactive) |  |  |  | 35.2 µM (inactive) |  | 15 µM (inactive) |  |  |  |  |
